# pIC50: −log10 of the molar value. Read-outs that look alike come from different tables or passages of the source.
# Experiments:
# Assay type in all cases: biochemical
# [1] = target: T1, matriptase (Homo sapiens, UniProt Q9Y5Y6); assay: Fluorogenic kinetic enzyme inhibitor assay, matriptase
# T1 construct: purchased R&D Systems 3946-SEB-010
# T1 sequence (Q9Y5Y6 615-855 limits assumed): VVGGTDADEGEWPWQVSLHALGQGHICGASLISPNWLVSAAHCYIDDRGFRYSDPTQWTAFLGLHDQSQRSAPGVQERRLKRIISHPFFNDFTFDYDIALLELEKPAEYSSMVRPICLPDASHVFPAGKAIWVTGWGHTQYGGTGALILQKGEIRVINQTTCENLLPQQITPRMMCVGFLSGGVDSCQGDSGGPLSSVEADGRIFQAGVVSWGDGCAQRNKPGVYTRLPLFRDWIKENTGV
# [2] = target: T2, hepsin (Homo sapiens, UniProt P05981); assay: Fluorogenic kinetic enzyme inhibitor assay, hepsin
# T2 construct: purchased R&D Systems 4776-SE-010
# T2 sequence (P05981 163-417 limits assumed): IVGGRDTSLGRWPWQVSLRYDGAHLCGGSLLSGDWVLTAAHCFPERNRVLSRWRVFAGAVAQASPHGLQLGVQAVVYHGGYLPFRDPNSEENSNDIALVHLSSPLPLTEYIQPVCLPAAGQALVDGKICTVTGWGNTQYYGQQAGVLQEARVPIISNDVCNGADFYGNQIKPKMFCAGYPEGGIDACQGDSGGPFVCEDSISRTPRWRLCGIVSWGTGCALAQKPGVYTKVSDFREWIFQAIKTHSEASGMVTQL
# T2 sequence (P05981 1-162 partner limits assumed): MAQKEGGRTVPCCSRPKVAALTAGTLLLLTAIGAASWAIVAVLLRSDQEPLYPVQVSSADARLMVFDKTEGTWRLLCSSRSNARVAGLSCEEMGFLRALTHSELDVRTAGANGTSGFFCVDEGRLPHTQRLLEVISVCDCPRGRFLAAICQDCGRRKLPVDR
# [3] = target: T3, HGFA (Homo sapiens, UniProt Q04756); assay: Fluorogenic kinetic enzyme inhibitor assay, HGFA
# T3 construct: purchased R&D Systems 1514-SE-010
# T3 sequence (Q04756 408-655 limits assumed): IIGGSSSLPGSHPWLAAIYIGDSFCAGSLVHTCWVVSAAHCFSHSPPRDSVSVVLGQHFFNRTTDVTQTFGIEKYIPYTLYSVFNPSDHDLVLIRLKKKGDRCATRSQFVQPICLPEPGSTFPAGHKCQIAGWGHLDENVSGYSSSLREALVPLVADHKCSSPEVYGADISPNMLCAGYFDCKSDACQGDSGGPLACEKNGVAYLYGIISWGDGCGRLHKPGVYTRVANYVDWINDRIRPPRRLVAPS
# T3 sequence (Q04756 373-407 partner limits assumed): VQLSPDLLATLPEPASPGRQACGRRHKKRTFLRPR
# [4] = target: Thrombin (Homo sapiens, UniProt P00734); assay: Fluorogenic assay, thrombin
# [5] = target: T4, Factor Xa (Homo sapiens, UniProt P00742); assay: Fluorogenic assay, Factor Xa
# T4 construct: TMPRSS2; Matriptase; Hepsin; HGFA; Thrombin; Factor Xa
# T4 sequence (P00742 235-488 limits assumed): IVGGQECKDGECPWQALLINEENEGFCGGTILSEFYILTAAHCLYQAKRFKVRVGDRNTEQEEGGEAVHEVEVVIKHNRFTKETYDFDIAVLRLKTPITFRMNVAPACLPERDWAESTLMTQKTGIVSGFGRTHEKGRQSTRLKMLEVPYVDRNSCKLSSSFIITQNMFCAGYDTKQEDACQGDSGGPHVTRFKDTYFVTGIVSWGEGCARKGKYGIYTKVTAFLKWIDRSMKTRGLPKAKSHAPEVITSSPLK
# T4 sequence (P00742 41-179 partner limits assumed): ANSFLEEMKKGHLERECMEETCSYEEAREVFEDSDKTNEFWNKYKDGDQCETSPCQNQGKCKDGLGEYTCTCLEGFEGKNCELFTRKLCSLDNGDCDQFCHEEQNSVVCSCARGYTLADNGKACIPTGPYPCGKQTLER
# [6] = target: TMPRSS2 (Homo sapiens, UniProt O15393); assay: Fluorogenic kinetic enzyme inhibitor assay, TMPRSS2; design: purchased Cusabio Technology CSB-YP023924HU; details: read-out: TMPRSS2 IC50
# Sequence of TMPRSS2 (O15393 106-492 limits assumed): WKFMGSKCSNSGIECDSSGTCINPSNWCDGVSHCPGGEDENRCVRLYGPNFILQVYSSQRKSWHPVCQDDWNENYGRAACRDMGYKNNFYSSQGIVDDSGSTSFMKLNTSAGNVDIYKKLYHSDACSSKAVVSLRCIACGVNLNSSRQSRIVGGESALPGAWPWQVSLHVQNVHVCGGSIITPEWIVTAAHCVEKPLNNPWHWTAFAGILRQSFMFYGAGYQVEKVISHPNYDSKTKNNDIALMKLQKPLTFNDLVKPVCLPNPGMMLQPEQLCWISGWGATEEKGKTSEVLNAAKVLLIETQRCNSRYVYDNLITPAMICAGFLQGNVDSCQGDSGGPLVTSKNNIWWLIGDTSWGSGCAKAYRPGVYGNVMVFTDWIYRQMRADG
# [7] = 30 min incubation, Boc-QAR-AMC at Km, read-out: Hepsin IC50
# [8] = 30 min incubation, Boc-QLR-AMC at Km, read-out: HGFA IC50
# [9] = 30 min incubation, Boc-QAR-AMC at Km, read-out: Matriptase IC50
# [10] = 30 min incubation, Boc-QAR-AMC at Km
Structure (SMILES),pIC50 [1],pIC50 [2],pIC50 [3],pIC50 [4],pIC50 [5],pIC50 [6],pIC50 ([2]; read-out: Hepsin IC50),pIC50 ([3]; read-out: HGFA IC50),pIC50 ([5]; read-out: Factor Xa IC50),pIC50 ([1]; read-out: Matriptase IC50),"pIC50 [2, 7]","pIC50 [3, 8]","pIC50 [1, 9]","pIC50 [6, 10]"
"CC(=O)N[C@@H](CC(C)C)C(=O)N[C@@H](CCC(N)=O)C(=O)N[C@@H](Cc1ccccc1)C(=O)N[C@@H](CCCNC(=N)N)C(=O)c1nc2ccccc2s1 [MM3131, N-[(S)-1-[N-(S)-1-[(1,3-benzothiazol-2-yl)carbonyl]-4-guanidinobutylcarbamoyl]-2-phenylethyl](S)-2-[(S)-2-acetylamino-4-methylvalerylamino]glutaramide]",8.74,9.61,7.01,< 4.70,6.66,10.51,–,–,–,–,–,–,–,–
"CCC(C)[C@H](NC(C)=O)C(=O)N[C@@H](CCC(N)=O)C(=O)N[C@@H](C)C(=O)N[C@@H](CCCNC(=N)N)C(=O)c1nc2ccccc2s1 (stereo partly drawn) [MM3178, N-[(S)-1-[N-(S)-1-[(1,3-benzothiazol-2-yl)carbonyl]-4-guanidinobutylcarbamoyl]ethyl](S)-2-[(2S)-2-acetylamino-3-methylvalerylamino]glutaramide]",10.00,–,–,< 4.70,–,9.64,8.90,< 4.70,6.77,–,–,–,–,–
"CCC(C)[C@H](NC(C)=O)C(=O)N[C@@H](CCC(N)=O)C(=O)N[C@@H](Cc1c[nH]c2ccccc12)C(=O)N[C@@H](CCCNC(=N)N)C(=O)c1nc2ccccc2s1 (stereo partly drawn) [MM3187, N-[(S)-2-(3-indolyl)-1-[N-(S)-1-[(1,3-benzothiazol-2-yl)carbonyl]-4-guanidinobutylcarbamoyl]ethyl](S)-2-[(2S)-2-acetylamino-3-methylvalerylamino]glutaramide]",8.91,–,–,< 4.70,–,8.66,9.50,5.84,6.89,–,–,–,–,–
"CC(=O)N[C@H](Cc1c[nH]c2ccccc12)C(=O)N[C@@H](Cc1ccccc1)C(=O)N[C@@H](CCCNC(=N)N)C(=O)c1nc2ccccc2s1 [PK-1-89A1, N-[(S)-1-[(1,3-benzothiazol-2-yl)carbonyl]-4-guanidinobutyl](S)-2-[(R)-2-acetylamino-3-(3-indolyl)propionylamino]-3-phenylpropionamide]",–,–,–,< 4.70,–,9.81,8.96,7.57,7.01,8.59,–,–,–,–
"CC(=O)N[C@H](Cc1c[nH]c2ccccc12)C(=O)N[C@@H](CC(C)C)C(=O)N[C@@H](CCCNC(=N)N)C(=O)c1nc2ccccc2s1 [PK-1-91, N-[(S)-1-[(1,3-benzothiazol-2-yl)carbonyl]-4-guanidinobutyl](S)-2-[(R)-2-acetylamino-3-(3-indolyl)propionylamino]-4-methylvaleramide]",–,–,–,5.03,–,10.59,8.80,6.98,5.84,7.41,–,–,–,–
"CC(=O)N[C@@H](Cc1c[nH]c2ccccc12)C(=O)N[C@@H](Cc1ccccc1)C(=O)N[C@@H](CCCNC(=N)N)C(=O)c1nc2ccccc2s1 [PK-1-102A1, N-[(S)-1-[(1,3-benzothiazol-2-yl)carbonyl]-4-guanidinobutyl](S)-2-[(S)-2-acetylamino-3-(3-indolyl)propionylamino]-3-phenylpropionamide]",–,–,–,< 4.70,–,9.41,8.12,6.48,7.67,8.24,–,–,–,–
"CC(=O)N[C@@H](Cc1c[nH]c2ccccc12)C(=O)N[C@@H](CC(C)C)C(=O)N[C@@H](CCCNC(=N)N)C(=O)c1nc2ccccc2s1 [PK-1-104, N-[(S)-1-[(1,3-benzothiazol-2-yl)carbonyl]-4-guanidinobutyl](S)-2-[(S)-2-acetylamino-3-(3-indolyl)propionylamino]-4-methylvaleramide]",–,–,–,4.77,–,8.89,9.03,7.12,6.05,7.59,–,–,–,–
"CSCC[C@@H]1NC(=O)[C@@H](NC(C)=O)CC(=O)NCCCC[C@@H](C(=O)N[C@@H](CCCNC(=N)N)C(=O)c2nc3ccccc3s2)NC1=O [VD3173, N-[(S)-1-[(1,3-benzothiazol-2-yl)carbonyl]-4-guanidinobutyl]-(3S,6S,14S)-6-acetylamino-3-[2-(methylthio)ethyl]-2,5,8-trioxo-1,4,9-triaza-14-cyclotetradecanecarboxamide]",–,–,–,4.73,–,9.40,–,–,5.86,9.00,8.23,5.49,–,–
"CC(=O)N[C@H]1Cc2ccc(cc2)OC/C=C\C[C@@H](C(=O)N[C@@H](CCCNC(=N)N)C(=O)c2nc3ccccc3s2)NC(=O)[C@H](CC(C)C)NC1=O [VD4010, N-[(S)-1-[(1,3-benzothiazol-2-yl)carbonyl]-4-guanidinobutyl]-(4Z,7S,10S,13S)-13-acetylamino-10-isobutyl-9,12-dioxo-2-oxa-8,11-diazabicyclo[13.2.2]nonadeca-1(17),4,15,18-tetraene-7-carboxamide]",8.47,–,–,< 4.70,–,8.92,9.77,7.28,6.91,–,–,–,–,–
"CC(=O)N[C@H]1C/C=C\COc2ccc(cc2)C[C@@H](C(=O)N[C@@H](CCCNC(=N)N)C(=O)c2nc3ccccc3s2)NC(=O)[C@H](CC(C)C)NC1=O [VD4051, N-[(S)-1-[(1,3-benzothiazol-2-yl)carbonyl]-4-guanidinobutyl]-(4Z,7S,10S,13S)-7-acetylamino-10-isobutyl-8,11-dioxo-2-oxa-9,12-diazabicyclo[13.2.2]nonadeca-1(17),4,15,18-tetraene-13-carboxamide]",7.85,7.70,< 4.70,< 4.70,–,7.85,–,–,5.06,–,–,–,–,–
"CC(=O)N[C@H]1Cc2ccc(cc2)OCCCC[C@@H](C(=O)N[C@@H](CCCNC(=N)N)C(=O)c2nc3ccccc3s2)NC(=O)[C@H](CC(C)C)NC1=O [VD4072, N-[(S)-1-[(1,3-benzothiazol-2-yl)carbonyl]-4-guanidinobutyl]-(7S,10S,13S)-13-acetylamino-10-isobutyl-9,12-dioxo-2-oxa-8,11-diazabicyclo[13.2.2]nonadeca-1(17),15,18-triene-7-carboxamide]",–,–,–,< 4.70,–,–,–,–,5.58,–,9.04,7.40,7.49,8.01
"CC(=O)N[C@H]1CCCCn2cc(nn2)C[C@H](C(=O)N[C@@H](CCCNC(=N)N)C(=O)c2nc3ccccc3s2)NC(=O)[C@H](CC(C)C)NC1=O [VD4118B, N-[(S)-1-[(1,3-benzothiazol-2-yl)carbonyl]-4-guanidinobutyl]-(6S,9S,12R)-6-acetylamino-9-isobutyl-7,10-dioxo-1,8,11,15,16-pentaazabicyclo[12.2.1]heptadeca-14(17),15-diene-12-carboxamide]",–,–,–,< 4.70,–,–,–,–,5.02,–,6.86,4.96,7.04,7.83
"CC(=O)N[C@H]1Cc2ccc(cc2)OCCCC[C@@H](C(=O)N[C@@H](CCCNC(=N)N)C(=O)c2nc3ccccc3s2)NC(=O)[C@H](Cc2c[nH]c3ccccc23)NC1=O [VD4158, N-[(S)-1-[(1,3-benzothiazol-2-yl)carbonyl]-4-guanidinobutyl]-(7S,10S,13S)-13-acetylamino-10-[(3-indolyl)methyl]-9,12-dioxo-2-oxa-8,11-diazabicyclo[13.2.2]nonadeca-1(17),15,18-triene-7-carboxamide]",–,8.55,–,< 4.70,–,–,–,–,5.02,–,–,7.07,7.25,7.80
"CC(=O)N[C@H]1Cc2ccc(cc2)OC/C=C\C[C@@H](C(=O)N[C@@H](CCCNC(=N)N)C(=O)c2nc3ccccc3s2)NC(=O)[C@@H](Cc2c[nH]c3ccccc23)NC1=O [VD5027, N-[(S)-1-[(1,3-benzothiazol-2-yl)carbonyl]-4-guanidinobutyl]-(4Z,7S,10R,13S)-13-acetylamino-10-[(3-indolyl)methyl]-9,12-dioxo-2-oxa-8,11-diazabicyclo[13.2.2]nonadeca-1(17),4,15,18-tetraene-7-carboxamide]",–,–,–,4.70,–,–,–,–,5.87,–,9.16,8.34,8.25,9.01

# Source: patent US20250171495A1, “MUTLI-TARGETED SERINE PROTEASE INHIBITORS FOR TREATMENT OF CANCER AND VIRAL INFECTION” (Washington University, priority 2023, published 2025)
